Patent US6486167B1, “Heterocyclic cytotoxic agents” (Rutgers, The State University of New Jersey, priority 1997, dated 2002)
Read-outs that look alike come from different tables or passages of the source.

Key:
human topoisomerase I = target: T1, human topoisomerase I (Homo sapiens, UniProt P11387); test: Topoisomerase I-mediated DNA cleavage assay (Test A); format: biochemical; conditions: for Topo I-mediated DNA cleavage (REC, Relative Effective Concentration): concentration relative to camptothecin (CPT = 1) producing the same cleavage on plasmid DNA, human topoisomerase I; for topoisomerase I poisoning activity (in words): qualitative statement
T1 construct: made in house
T1 sequence (P11387 1-765): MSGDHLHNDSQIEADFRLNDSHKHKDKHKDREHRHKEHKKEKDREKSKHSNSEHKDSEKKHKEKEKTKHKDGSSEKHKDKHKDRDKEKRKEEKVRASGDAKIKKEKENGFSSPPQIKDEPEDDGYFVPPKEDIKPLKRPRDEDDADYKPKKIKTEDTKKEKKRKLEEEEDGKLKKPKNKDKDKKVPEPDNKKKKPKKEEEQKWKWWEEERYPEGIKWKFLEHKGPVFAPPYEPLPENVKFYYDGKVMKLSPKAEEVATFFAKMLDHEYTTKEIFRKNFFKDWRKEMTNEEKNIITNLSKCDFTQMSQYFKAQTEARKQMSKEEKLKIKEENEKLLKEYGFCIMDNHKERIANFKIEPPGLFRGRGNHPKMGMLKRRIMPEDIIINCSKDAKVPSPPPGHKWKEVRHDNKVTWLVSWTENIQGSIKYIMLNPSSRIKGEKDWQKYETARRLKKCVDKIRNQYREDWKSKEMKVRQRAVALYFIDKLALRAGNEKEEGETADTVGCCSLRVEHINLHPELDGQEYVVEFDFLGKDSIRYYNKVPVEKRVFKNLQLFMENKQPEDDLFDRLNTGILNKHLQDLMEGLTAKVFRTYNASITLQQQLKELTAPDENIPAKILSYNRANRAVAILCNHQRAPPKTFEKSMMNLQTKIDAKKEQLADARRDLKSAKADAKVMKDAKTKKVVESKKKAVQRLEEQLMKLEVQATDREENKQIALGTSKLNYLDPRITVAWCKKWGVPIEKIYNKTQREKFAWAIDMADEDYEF
Experimental: (§1) Topoisomerase I and Topoisomerase II Cleavage Assay
(§2) Representative compounds of the invention were evaluated in cleavage assays for the recombinant topoisomerases I and calf thymus topoisomerases I and II. These assays were preformed as described by B. Gatto et al. Cancer Res., 1996, 56, 2795-2800. Human topoisomerase I was isolated as a recombinant fusion protein using a T7 expression system. DNA topoisomerase II was purified from calf thymus gland as reported by Halligan, B. D.; Edwards, K. A.; Liu, L. F. “Purification and characterization of a type II DNA topoisomerase from bovine calf thymus,” J. Biol. Chem. 1985, 260, 2475. Plasmid YEpG was purified by the alkali lysis method followed by phenol deproteination and CsCl/ethidium isopycnic centrifugation as described by Maniatis, T.; Fritsch, E. F.; Sambrook, J. Molecular Cloning, a Laboratory Manual; Cold Spring Harbor Laboratory: Cold Spring Harbor, N.Y. 1982; pp 149-185. The end-labeling of the plasmid was accomplished by digestion with a restriction enzyme followed by end-filling with Klenow polymerase as previously described by Liu, L. F.; Rowe, T. C.; Yang, L.; Tewey, K. M.; Chen, G. L. “Cleavage of DNA by mammalian topoisomerase II,” J. Biol. Chem. 1983, 258, 15365.

[1] = test system: calf thymus topoisomerase II; test: Topoisomerase II-mediated DNA cleavage assay (Test A); format: biochemical; conditions: concentration relative to VM-26 (= 1) producing the same cleavage on plasmid DNA
Experimental: as §1, §2

[2] = test system: human lymphoblast RPMI 8402; test: MTT-microtiter plate tetrazolinium cytotoxicity assay (Test B), RPMI 8402; format: cell-based; conditions: read-out: Cytotoxicity IC50 RPMI
Experimental: (§3) The cytotoxicity was determined using the MTT-microtiter plate tetrazolinium cytotoxicity assay (MTA) (See Chen A. Y. et al. Cancer Res. 1993, 53, 1332; Mosmann, T. J., J. Immunol. Methods 1983, 65, 55; and Carmichael, J. et al. Cancer Res. 1987, 47, 936).

[3] = test system: camptothecin-resistant variant cell line, CPT-K5; test: MTT-microtiter plate tetrazolinium cytotoxicity assay (Test B), CPT-K5; format: cell-based, human; conditions: read-out: Cytotoxicity IC50 CPT-K5
Experimental: as §3

[4] = Homo sapiens, 96 h, CPT-K5 camptothecin-resistant cells, 4 days of continuous drug exposure

Row | Compound | Topo I-mediated DNA cleavage (REC, Relative Effective Concentration) (human topoisomerase I) | Topo II-mediated DNA cleavage (REC, Relative Effective Concentration) [1] | IC50 ([2]; Homo sapiens, 96 h, RPMI 8402 cells, 4 days of continuous drug exposure) | IC50 [3, 4] | topoisomerase I poisoning activity (in words) (human topoisomerase I) | melting point | IC50 ([2]; Homo sapiens, RPMI 8402, 96 h) | IC50 ([3]; Homo sapiens, CPT-K5, 96 h) | IC50 ([2]; RPMI 8402 cells, 4 days of continuous drug exposure) | IC50 ([3]; CPT-K5 camptothecin-resistant cells, 4 days of continuous drug exposure)
1 | 2,3,8,9-Dimethylenedioxybenzo[i]phenanthridine [Compound 29] | 100 | >1000 | – | – | – | – | – | – | – | –
2 | CC[C@@]1(O)C(=O)OCc2c1cc1n(c2=O)Cc2cc3ccccc3nc2-1 [CPT, camptothecin, reference compound] | 1 | >1000 | 0.004 µM | > 10 µM | – | – | – | – | – | –
3 | COc1cc2ccc3c4cc(OC)c(OC)cc4ncc3c2cc1OC [Compound 4, 2,3,8,9-Tetramethoxybenzo[i]phenanthridine] | >1000 | >1000 | – | – | significantly less topoisomerase I poisioning activity | 267 to 268 °C | 22.9 µM | 22.9 µM | – | –
4 | COc1cc2ccc3c4cc(OC)c(OC)cc4nc(C)c3c2cc1OC [Compound 5, 5-Methyl-2,3,8,9-tetramethoxybenzo[i]phenanthridine] | >1000 | >1000 | – | – | significantly less topoisomerase I poisioning activity | 255 to 257 °C | 27.5 µM | > 27.5 µM | – | –
5 | COc1cc2ncc3c4cc5c(cc4ccc3c2cc1OC)OCO5 [Compound 6, 2,3-Methylenedioxy-8,9-dimethoxybenzo[i]phenanthridine] | 100 | 10 | – | – | potent activity | > 250 °C | 7.5 µM | 7 µM | – | –
6 | COc1cc2nc(C)c3c4cc5c(cc4ccc3c2cc1OC)OCO5 [Compound 7, 8,9-Dimethoxy-5-methyl-2,3-methylenedioxybenzo[i]-phenanthridine] | 200 | 100 | – | – | potent activity | > 250 °C | 10.1 µM | 14.4 µM | – | –
7 | COc1cc2ccc3c4cc5c(cc4ncc3c2cc1OC)OCO5 [Compound 28, 2,3-Dimethoxy-8,9-methylenedioxybenzo[i]phenanthridine] | 25 | >1000 | – | – | potent topoisomerase poisioning activity | 171 °C | 0.2 µM | 0.2 µM | – | –
8 | COc1cc2ccc3c4cc(OCc5ccccc5)ccc4ncc3c2cc1OC [Compound 30, 2,3-Dimethoxy-9-benzyloxybenzo[i]phenanthridine] | 250 | >1000 | – | – | – | – | 7.5 µM | 7.5 µM | – | –
9 | COc1cc2ccc3c4cc(N)ccc4ncc3c2cc1OC [Compound 31, 2,3-Dimethoxy-9-aminobenzo[i]phenanthridine] | 50 | >1000 | – | – | – | – | 3 µM | 3 µM | – | –
10 | COc1ccc2c(c1)ncc1c3cc(OC)c(OC)cc3ccc21 [Example 9, 2,3,8-Trimethoxybenzo[i]phenanthridine] | – | – | – | – | – | 200 to 202 °C | – | – | – | –
11 | COc1cc2c[n+](C)c3c4cc5c(cc4ccc3c2cc1OC)OCO5 [Nitidine, reference compound] | 1 | 1 | – | > 2.6 µM | – | – | 0.65 µM | – | – | –
12 | COc1cc([C@@H]2c3cc4c(cc3[C@@H](O[C@@H]3O[C@@H]5CO[C@@H](c6cccs6)O[C@H]5[C@H](O)[C@H]3O)[C@H]3COC(=O)[C@H]23)OCO4)cc(OC)c1O [VM-26, teniposide, reference compound] | >1000 | 1 | – | – | – | – | – | – | 0.3 µM | 0.5 µM
